Results: patent US11225480B2, “Malic enzyme inhibitors” (SUN PHARMA ADVANCED RESEARCH COMPANY LTD, priority 2019, dated 2022)
Structures can show the parent of a compound that is named as a salt.

How the values were obtained:
Assay type in all cases: biochemical
human ME3 enzyme = molecular target: T1, human ME3 enzyme (Homo sapiens, UniProt Q16798); experiment: ME3 inhibition assay (diaphorase/resazurin coupled fluorescence); details: 10 μM compound concentration; read-out: Malic Enzyme 3 % inhibition (10 μM)
T1 sequence (Q16798 1-604): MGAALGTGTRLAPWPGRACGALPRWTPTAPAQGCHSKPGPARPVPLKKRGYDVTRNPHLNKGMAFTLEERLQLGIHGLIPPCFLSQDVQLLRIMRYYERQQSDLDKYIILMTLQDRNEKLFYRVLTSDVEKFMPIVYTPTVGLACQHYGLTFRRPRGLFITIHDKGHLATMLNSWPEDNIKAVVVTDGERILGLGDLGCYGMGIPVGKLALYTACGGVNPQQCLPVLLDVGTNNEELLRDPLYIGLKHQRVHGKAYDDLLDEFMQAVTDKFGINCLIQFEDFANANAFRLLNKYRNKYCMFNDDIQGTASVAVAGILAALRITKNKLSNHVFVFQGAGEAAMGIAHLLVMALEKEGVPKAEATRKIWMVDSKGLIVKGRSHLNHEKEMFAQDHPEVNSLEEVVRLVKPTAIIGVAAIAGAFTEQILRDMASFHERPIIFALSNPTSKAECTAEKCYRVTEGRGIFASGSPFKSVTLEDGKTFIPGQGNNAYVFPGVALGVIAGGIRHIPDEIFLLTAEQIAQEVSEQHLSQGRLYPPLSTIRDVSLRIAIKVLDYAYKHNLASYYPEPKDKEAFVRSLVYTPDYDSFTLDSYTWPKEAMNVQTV
Method in brief: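 Coupled read-out: NADPH made by human ME3 (20 nM stock) drives diaphorase conversion of resazurin (50 μM) to resorufin; buffer 50 mM Tris-HCl pH 7.5, 10 mM MnCl2, 3 mM L-malate.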

human ME2 enzyme = human ME2 enzyme (Homo sapiens, UniProt P23368); experiment: ME2 inhibition assay (diaphorase/resazurin coupled fluorescence); details: 10 μM compound concentration; read-out: Malic Enzyme 2 % inhibition (10 μM)
Method: (§1) ME2 catalyzes the oxidative decarboxylation of malate to pyruvate with conversion of the co-factor β-NAD+ to β-NADH. In the fluorescence assay, a coupled reaction is set up where in an enzyme, Diaphorase, utilizes NADH generated by ME2, to convert the dye resazurin to a fluorescent molecule resorufin. Resorufin has a characteristic fluorescence with excitation/emission at 540/600 nm (SLAS Discov., 2017 April 1:2472555217706649).
The enzyme activity inhibition assay is set up in a 200 μL final reaction volume in a 96-well plate. As per the experimental design, 2 μL of the compounds at 100× the desired concentration (10 μM) in DMSO were added to the respective wells with 178 μL of assay buffer (50 mM Tris-HCl pH 7.5, 10 mM MnCl2, 7 mM L-malate, 50 μM Resazurin and 0.025 mg/ml Diapharose). The 96-well plate was incubated on a plate shaker at room temperature for 15 minutes protected from light. The well contents were gently mixed by adding 10 μL of 60 nM human ME2 enzyme to the wells and the plate was incubated on a shaker at room temperature for 5 minutes protected from light. Suitable ‘enzyme only’ and ‘no enzyme’ controls were included in the experiment. The enzymatic reaction was started by adding 10 μL of 2 mM β-NAD+. The reaction was gently mixed and the plate was initially left on a shaker at room temperature for −7 minutes protected from light. Later, the plate was incubated without shaking at room temperature for 2 hours. At the end of 2 hours, the fluorescence of the wells was measured at excitation 540 nm and emission 600 nm. The % enzyme activity of the compounds is obtained by normalizing the data with enzyme only (100%) and no enzyme controls (0%) using GraphPad Prism software 7.04.

human ME1 enzyme = molecular target: T2, human ME1 enzyme (Homo sapiens, UniProt P48163); experiment: ME1 inhibition assay (diaphorase/resazurin coupled fluorescence); details: 10 μM compound concentration; read-out: Malic Enzyme 1 % inhibition (10 μM)
T2 sequence (P48163 1-572): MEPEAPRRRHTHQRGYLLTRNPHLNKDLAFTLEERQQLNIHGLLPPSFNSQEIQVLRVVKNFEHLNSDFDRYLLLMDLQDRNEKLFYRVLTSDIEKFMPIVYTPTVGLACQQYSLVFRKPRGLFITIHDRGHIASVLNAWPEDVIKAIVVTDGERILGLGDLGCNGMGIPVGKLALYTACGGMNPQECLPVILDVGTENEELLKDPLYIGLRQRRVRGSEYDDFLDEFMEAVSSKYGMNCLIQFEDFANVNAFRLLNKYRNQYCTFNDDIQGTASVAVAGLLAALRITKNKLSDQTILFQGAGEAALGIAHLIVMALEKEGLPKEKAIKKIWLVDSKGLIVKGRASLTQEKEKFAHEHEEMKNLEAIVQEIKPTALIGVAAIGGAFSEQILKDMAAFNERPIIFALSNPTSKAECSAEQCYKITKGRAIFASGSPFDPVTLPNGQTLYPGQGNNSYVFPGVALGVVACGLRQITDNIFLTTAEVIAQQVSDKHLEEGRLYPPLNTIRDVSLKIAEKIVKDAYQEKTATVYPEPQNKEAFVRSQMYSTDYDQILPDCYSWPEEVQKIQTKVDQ
Method: as §1, with “ME1” for “ME2”, “β-NADP+” for “β-NAD+”, “β-NADPH.” for “β-NADH.”, “NADPH” for “NADH”, “ME1,” for “ME2,”
The enzyme activity inhibition assay is set up in a 200 μL final reaction volume in a 96-well plate. As per the experimental design, 2 μL of the compounds at 100× the desired concentration (10 μM) in DMSO were added to the respective wells with 178 μL of assay buffer (50 mM Tris-HCl pH 7.5, 10 mM MnCl2, 2 mM L-malate, 10 μM Resazurin and 0.01 mg/ml Diapharose). The 96-well plate was incubated on a plate shaker at room temperature for 15 minutes protected from light. The well contents were gently mixed by adding 10 μL of 20 nM human ME1 enzyme to the wells and the plate was incubated on a shaker at room temperature for 5 minutes protected from light. Suitable ‘enzyme only’ and ‘no enzyme’ controls were included in the experiment. The enzymatic reaction was started by adding 10 μL of 0.3 mM D-NADP+. The reaction was gently mixed and the plate was initially left on a shaker at room temperature for −7 minutes protected from light. Later, the plate was incubated without shaking at room temperature for 2 hours. At the end of 2 hours, the fluorescence of the wells was measured at excitation 540 nm and emission 600 nm. The % enzyme activity of the compounds is obtained by normalizing the data with enzyme only (100%) and no enzyme controls (0%) using GraphPad Prism software 7.04.

Sequence of human ME2 enzyme (P23368 19-584): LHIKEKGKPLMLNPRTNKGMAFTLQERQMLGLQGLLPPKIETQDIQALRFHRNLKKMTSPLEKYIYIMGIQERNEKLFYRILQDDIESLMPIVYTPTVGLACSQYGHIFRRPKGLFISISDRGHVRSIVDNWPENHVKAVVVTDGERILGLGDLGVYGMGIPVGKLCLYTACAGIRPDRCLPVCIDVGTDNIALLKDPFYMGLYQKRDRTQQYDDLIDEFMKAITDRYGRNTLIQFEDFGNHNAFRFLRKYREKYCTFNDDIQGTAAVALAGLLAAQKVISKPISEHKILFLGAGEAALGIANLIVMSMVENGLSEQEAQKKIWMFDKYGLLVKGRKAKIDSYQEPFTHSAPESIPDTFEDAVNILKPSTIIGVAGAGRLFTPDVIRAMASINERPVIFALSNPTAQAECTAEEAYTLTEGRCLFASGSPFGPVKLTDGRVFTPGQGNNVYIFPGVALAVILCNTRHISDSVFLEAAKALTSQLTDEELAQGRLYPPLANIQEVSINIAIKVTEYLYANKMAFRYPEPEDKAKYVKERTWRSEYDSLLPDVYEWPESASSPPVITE

| Structure (SMILES) | inhibition at 10 µM (human ME3 enzyme) [%] | inhibition at 10 µM (human ME2 enzyme) [%] | inhibition at 10 µM (human ME1 enzyme) [%] |
| --- | --- | --- | --- |
| O=C(CCc1ccncc1)N1CCN(c2ccc(O)cn2)CC1 [I.66, 1-[4-(5-Hydroxy-pyridin-2-yl)-piperazin-1-yl]-3-pyridin-4-yl-propan-1-one] | > 90 | 70 to 89 | 70 to 89 |
| O=C(C1Cc2ccccc2C1)N1CCN(c2ccc(O)cn2)CC1 [I.67, [4-(5-Hydroxy-pyridin-2-yl)-piperazin-1-yl]-indan-2-yl-methanone] | > 90 | 50 to 69 | > 90 |
| O=C(CCCCc1ccccc1)N1CCN(c2ccc(O)cn2)CC1 [I.68, 1-[4-(5-Hydroxy-pyridin-2-yl)-piperazin-1-yl]-5-phenylpentan-1-one hydrochloride] | > 90 | 70 to 89 | > 90 |
| Cn1cc(C(=O)N2CCN(c3ccc(O)cn3)CC2)c(=O)c2ccccc21 [I.69, 3-[4-(5-Hydroxy-2-pyridyl)-piperazine-1-carbonyl]-1-methyl-quinolin-4-one] | > 90 | 70 to 89 | 70 to 89 |
| O=C(O)CCCC(=O)N1CCN(c2ccc(O)cn2)CC1 [I.70, 5-[4-(5-hydroxy-2-pyridyl)piperazin-1-yl]-5-oxo-pentanoic acid] | > 90 | 70 to 89 | 70 to 89 |
| Cn1cc(C(=O)N2CCN(c3ccc(O)cn3)CC2)c2ccccc21 [I.71, [4-(5-Hydroxy-pyridin-2-yl)-piperazin-1-yl]-(1-methyl-1H-indol-3-yl)-methanone] | > 90 | 70 to 89 | > 90 |
| O=C(CCc1cccc(C(F)(F)F)c1)N1CCN(c2ccc(O)cn2)CC1 [I.72, 1-[4-(5-Hydroxy-pyridin-2-yl)-piperazin-1-yl]-3-(3-trifluoro-methylphenyl)-propan-1-one] | > 90 | 70 to 89 | > 90 |
| O=C(c1cc2ccccc2oc1=O)N1CCN(c2ccc(O)cn2)CC1 [I.73, 3-[4-(5-Hydroxy-2-pyridyl)-piperazine-1-carbonyl]-chromen-2-one] | > 90 | 70 to 89 | 70 to 89 |
| O=C(C=C(c1ccccc1)c1ccccc1)N1CCN(c2ccc(O)cn2)CC1 [I.74, 1-[4-(5-Hydroxy-2-pyridyl)-piperazin-1-yl]-3,3-diphenyl-prop-2-en-1-one] | > 90 | 70 to 89 | > 90 |
| O=C(CC(c1ccccc1)c1ccccc1)N1CCN(c2ccc(O)cn2)CC1 [I.75, 1-[4-(5-Hydroxy-2-pyridyl)-piperazin-1-yl]-3,3-diphenyl-propan-1-one] | > 90 | 70 to 89 | > 90 |
| O=C(CCc1ccc(Cl)c(Cl)c1)N1CCN(c2ccc(O)cn2)CC1 [I.79, 3-(3,4-Dichloro-phenyl)-1-[4-(5-hydroxy-pyridin-2-yl)-piperazin-1-yl]-propan-1-one] | > 90 | > 90 | > 90 |
| Cc1cccc(Cl)c1C(=O)N1CCN(c2ccc(O)cn2)CC1 [I.80, (2-Chloro-6-methylphenyl)-[4-(5-hydroxy-pyridin-2-yl)-piperazin-1-yl]-methanone] | > 90 | > 90 | > 90 |
| O=C(CCc1ccc(Cl)cc1)N1CCN(c2ccc(O)cn2)CC1 [I.82, 3-(4-Chloro-phenyl)-1-[4-(5-hydroxy-pyridin-2-yl)-piperazin-1-yl]-propan-1-one] | > 90 | > 90 | > 90 |
| O=C(CNC12CC3CC(CC(C3)C1)C2)N1CCN(c2ccc(O)cn2)CC1 [I.83, 2-(1-Adamantyl-amino)-1-[4-(5-hydroxy-2-pyridyl)-piperazin-1-yl]ethanone] | > 90 | 50 to 69 | 50 to 69 |
| COc1ccc(C(=CC(=O)N2CCN(c3ccc(O)cn3)CC2)c2ccc(OC)cc2)cc1 [I.84, 1-[4-(5-Hydroxy-2-pyridyl)-piperazin-1-yl]-3,3-bis(4-methoxy-phenyl)-prop-2-en-1-one] | > 90 | 70 to 89 | 70 to 89 |
| O=C(c1cc2cc(F)ccc2[nH]1)N1CCN(c2ccc(O)cn2)CC1 [I.88] | > 90 | 70 to 89 | > 90 |
| O=C(CCc1cccc(F)c1)N1CCN(c2ccc(O)cn2)CC1 [I.92, 3-(3-Fluoro-phenyl)-1-[4-(5-hydroxy-pyridin-2-yl)-piperazin-1-yl]-propan-1-one] | > 90 | > 90 | > 90 |
| COc1ccc(C(CC(=O)N2CCN(c3ccc(O)cn3)CC2)c2ccc(OC)cc2)cc1 [I.93, 1-[4-(5-Hydroxy-2-pyridyl)-piperazin-1-yl]-3,3-bis(4-methoxy-phenyl)-propan-1-one] | > 90 | 70 to 89 | 70 to 89 |
| O=C(CC=C(c1ccccc1)c1ccccc1)N1CCN(c2ccc(O)cn2)CC1 [I.94, 1-[4-(5-Hydroxy-2-pyridyl)-piperazin-1-yl]-4,4-diphenyl-but-3-en-1-one] | > 90 | 70 to 89 | 70 to 89 |
| O=C(N1CCN(c2ccc(O)cn2)CC1)C(O)(c1ccccc1)C1CCCCC1 (stereo not drawn) [I.95, 2-cyclohexyl-2-hydroxy-1-[4-(5-hydroxy-2-pyridyl)piperazin-1-yl]-2-phenyl-ethanone] | > 90 | 70 to 89 | 70 to 89 |
